Measurements as given in PubChem BioAssay AID270 (DTP/NCI, 2004).
Where “and” joins values, the source holds several entries; their conditions need not be identical. Equal values may be shown once. Inconclusive results are not listed.

Test system: BDF1 mice, s.c. Lewis lung carcinoma, T/C %
Test: NCI In Vivo Anticancer Drug Screen. Data for tumor model Lewis Lung Carcinoma (subcutaneous) in B6D2F1 (BDF1) mice
How it was run: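 Antitumor effect in vivo is scored from survival or tumor burden, reported as treated relative to vehicle controls.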

SMILES: CN(C)/N=N/c1nc[nH]c1C(N)=O
- T/C (endpoint: mean tumor weight, dose: 12.5 mg/kg/injection, schedule: Q01DX011 (ip), vehicle: saline, higher = larger tumour): 76 % of control
- T/C (endpoint: mean tumor weight, dose: 25.0 mg/kg/injection, schedule: Q01DX011 (ip), vehicle: saline, higher = larger tumour): 108 % of control
- T/C (endpoint: mean tumor weight, dose: 48.0 mg/kg/injection, schedule: Q01DX011 (ip), vehicle: carboxymethylcellulose (CMC), higher = larger tumour): 111 % of control
- T/C (endpoint: mean tumor weight, dose: 50.0 mg/kg/injection, schedule: Q01DX011 (ip), vehicle: saline, higher = larger tumour): 80 % of control
- T/C (endpoint: mean tumor weight, dose: 95.0 mg/kg/injection, schedule: Q01DX011 (ip), vehicle: carboxymethylcellulose (CMC), higher = larger tumour): 117 % of control
- T/C (endpoint: mean tumor weight, dose: 100.0 mg/kg/injection, schedule: Q01DX010 (ip), vehicle: saline, higher = larger tumour): 44 % of control
- T/C (endpoint: mean tumor weight, dose: 100.0 mg/kg/injection, schedule: Q01DX011 (ip), vehicle: saline, higher = larger tumour): 42 % of control
- T/C (endpoint: mean tumor weight, dose: 143.0 mg/kg/injection, schedule: Q01DX011 (ip), vehicle: carboxymethylcellulose (CMC), higher = larger tumour): 78 % of control
- T/C (endpoint: mean tumor weight, dose: 200.0 mg/kg/injection, schedule: Q01DX010 (ip), vehicle: saline, higher = larger tumour): 51 % of control
- T/C (endpoint: median survival time, dose: 27.0 mg/kg/injection, schedule: Q01DX015 (ip), vehicle: carboxymethylcellulose (CMC), higher = longer survival): 94 % of control and 122 % of control
- T/C (endpoint: median survival time, dose: 37.5 mg/kg/injection, schedule: Q01DX009 (ip), vehicle: Klucel (hydroxypropylcellulose) (HPC), higher = longer survival): 97 % of control and 116 % of control
- T/C (endpoint: median survival time, dose: 37.5 mg/kg/injection, schedule: Q01DX009 (ip), vehicle: saline with Tween-80, higher = longer survival): 106 % of control and 118 % of control
- T/C (endpoint: median survival time, dose: 40.0 mg/kg/injection, schedule: Q01DX015 (ip), vehicle: carboxymethylcellulose (CMC), higher = longer survival): 92 % of control
- T/C (endpoint: median survival time, dose: 60.0 mg/kg/injection, schedule: Q01DX015 (ip), vehicle: carboxymethylcellulose (CMC), higher = longer survival): 102 % of control
- T/C (endpoint: median survival time, dose: 75.0 mg/kg/injection, schedule: Q01DX009 (ip), vehicle: Klucel (hydroxypropylcellulose) (HPC), higher = longer survival): 110 % of control
- T/C (endpoint: median survival time, dose: 75.0 mg/kg/injection, schedule: Q01DX009 (ip), vehicle: saline with Tween-80, higher = longer survival): 118 % of control
- T/C (endpoint: median survival time, dose: 100.0 mg/kg/injection, schedule: Q01DX009 (ip), vehicle: saline with Tween-80, higher = longer survival): 118 % of control
- T/C (endpoint: median survival time, dose: 150.0 mg/kg/injection, schedule: Q01DX009 (ip), vehicle: Klucel (hydroxypropylcellulose) (HPC), higher = longer survival): 122 % of control
- T/C (endpoint: median survival time, dose: 150.0 mg/kg/injection, schedule: Q01DX009 (ip), vehicle: saline with Tween-80, higher = longer survival): 92 % of control
- T/C (endpoint: median survival time, dose: 200.0 mg/kg/injection, schedule: Q01DX009 (ip), vehicle: saline with Tween-80, higher = longer survival): 113 % of control
- T/C (endpoint: median survival time, dose: 300.0 mg/kg/injection, schedule: Q01DX009 (ip), vehicle: Klucel (hydroxypropylcellulose) (HPC), higher = longer survival): 95 % of control
- T/C (endpoint: median survival time, dose: 450.0 mg/kg/injection, schedule: Q01DX001 (ip), vehicle: carboxymethylcellulose (CMC), higher = longer survival): 93 % of control
- T/C (endpoint: median survival time, dose: 670.0 mg/kg/injection, schedule: Q01DX001 (ip), vehicle: carboxymethylcellulose (CMC), higher = longer survival): 96 % of control
- T/C (endpoint: median tumor weight (est.), dose: 23.7 mg/kg/injection, schedule: Q01DX009 (ip), vehicle: carboxymethylcellulose (CMC), higher = larger tumour): 102 % of control
- T/C (endpoint: median tumor weight (est.), dose: 24.0 mg/kg/injection, schedule: Q01DX009 (ip), vehicle: carboxymethylcellulose (CMC), higher = larger tumour): 74 % of control and 77 % of control
- T/C (endpoint: median tumor weight (est.), dose: 37.5 mg/kg/injection, schedule: Q01DX009 (ip), vehicle: saline with Tween-80, higher = larger tumour): 90 % of control
- T/C (endpoint: median tumor weight (est.), dose: 47.0 mg/kg/injection, schedule: Q01DX009 (ip), vehicle: carboxymethylcellulose (CMC), higher = larger tumour): 99 % of control
- T/C (endpoint: median tumor weight (est.), dose: 47.5 mg/kg/injection, schedule: Q01DX009 (ip), vehicle: carboxymethylcellulose (CMC), higher = larger tumour): 50 % of control
- T/C (endpoint: median tumor weight (est.), dose: 48.0 mg/kg/injection, schedule: Q01DX009 (ip), vehicle: carboxymethylcellulose (CMC), higher = larger tumour): 70 % of control
- T/C (endpoint: median tumor weight (est.), dose: 75.0 mg/kg/injection, schedule: Q01DX009 (ip), vehicle: saline with Tween-80, higher = larger tumour): 73 % of control
- T/C (endpoint: median tumor weight (est.), dose: 95.0 mg/kg/injection, schedule: Q01DX009 (ip), vehicle: carboxymethylcellulose (CMC), higher = larger tumour): 79 % of control and 82 % of control and 99 % of control
- T/C (endpoint: median tumor weight (est.), dose: 150.0 mg/kg/injection, schedule: Q01DX009 (ip), vehicle: saline with Tween-80, higher = larger tumour): 70 % of control
- T/C (endpoint: median tumor weight (est.), dose: 300.0 mg/kg/injection, schedule: Q01DX009 (ip), vehicle: saline with Tween-80, higher = larger tumour): 36 % of control

SMILES: C[C@]12CC[C@H](O)C[C@@]1(O)CC[C@@H]1[C@@H]2CC[C@]2(C)[C@@H](c3ccc(=O)oc3)CC[C@]12O
- T/C (endpoint: median survival time, dose: 1.25 mg/kg/injection, schedule: Q01DX009 (ip), vehicle: Klucel (hydroxypropylcellulose) (HPC), higher = longer survival): 97 % of control
- T/C (endpoint: median survival time, dose: 2.5 mg/kg/injection, schedule: Q01DX009 (ip), vehicle: Klucel (hydroxypropylcellulose) (HPC), higher = longer survival): 98 % of control
- T/C (endpoint: median survival time, dose: 10.0 mg/kg/injection, schedule: Q01DX009 (ip), vehicle: Klucel (hydroxypropylcellulose) (HPC), higher = longer survival): 104 % of control
- T/C (endpoint: median survival time, dose: 20.0 mg/kg/injection, schedule: Q01DX009 (ip), vehicle: Klucel (hydroxypropylcellulose) (HPC), higher = longer survival): 113 % of control
